MIC data for 3 compounds are collected here from ChEMBL document CHEMBL4831479, “Discovery of Novel Thiophene-arylamide Derivatives as DprE1 Inhibitors with Potent Antimycobacterial Activities” (J Med Chem, 2021).

Test [1] has as its system Mycobacterium tuberculosis. The test is described as follows: Non-covalent inhibition of DprE1 in PBTZ169-resistant Mycobacterium tuberculosis measured after 7 days by microplate Alamar blue assay. As to conditions: time 7.0 day. In general terms: Alamar Blue is a resazurin reagent that responds to reducing activity.
In test [2] the test system is Mycobacterium tuberculosis. Kind of test: Non-covalent inhibition of DprE1 in bedaquiline-resistant Mycobacterium tuberculosis measured after 7 days by microplate Alamar blue assay. Conditions: time 7.0 day.

Converted amounts (≈) assume the structure as drawn.

In test [1], `COC(=O)NC(=O)c1ccsc1NC(=O)c1ccc(C(=O)N2CCCCC2)cc1` yielded an MIC of 0.48 µg/mL (≈ 1.16 µM).

`CCOC(=O)NC(=O)c1ccsc1NC(=O)c1ccc(C(=O)N2CCCCC2)cc1` showed an MIC in test [1] of 0.14 µg/mL (≈ 0.326 µM).

`CCOC(=O)NC(=O)c1ccsc1NC(=O)c1ccc(C(=O)N2CCCCC2)c(F)c1`: the MIC was 0.054 µg/mL (≈ 0.121 µM) in test [2] and 0.062 µg/mL (≈ 0.139 µM) in test [1].
